This note sets out measurements from patent US12692233B2, “Anthelmintic compounds comprising a pyridine structure” (Intervet Inc., priority 2020, dated 2026).

Experiment [1] concerns the target T1, human Maxi K channel (BK channel) (Homo sapiens, UniProt Q12791).
T1 construct: expressed in transfected cells; host or cells: CHO K1
As to the kind of experiment: Agonistic activity at the human Maxi K channel (BK channel), FLIPR membrane potential in CHO K1 cells. Type of experiment: cell-based. The conditions noted are these: CHO K1 cells stably transfected with KCNMA1 and beta1 (KCNMB1) subunits, membrane potential dye. The source says:
A CHO K1 cell line was stably transfected with the KCNMA1 (KCa1.1, U11058) and beta1 (KCNMB1) subunits of the human Maxi K channel (Ponte et al, Molecular Pharmacology 2012, 81(4), 567-577).
The complete measurement takes 150 s.

The target in experiment [2] is C. elegans Slo-1a (Caenorhabditis elegans, UniProt Q95V25). The experiment in a line: Agonistic activity at C. elegans Slo-1a, FLIPR membrane potential in CHO K1 cells. To be noted: EC50 agonistic activity at C. elegans Slo-1a, CHO K1 cells stably transfected with slo-1a, membrane potential dye.
Experiment [3] relates to Ascaridia galli. The experiment in a line: In vitro assay Ascaridia galli larval stage 3. Type of experiment: cell-based. To be noted: larval stage 3, 20 larvae per well, microscopic examination, read-out: MEC (minimum effective concentration) against Ascaridia galli L3. From the text: […] galli (intestinal roundworm of chicken), larval stage 3 (“L3”); and Oesophagostumum dentatum (nodular worm of swine), larval stages 3 and 4 (respectively “L3” and “L4”) where suspended in a nutrient medium and distributed to 96 well plates with 20 larvae per well. The wells were spiked DMSO solutions of the compounds with declining concentration.

T1 sequence (Q12791 1-1178 isoform Q12791-5): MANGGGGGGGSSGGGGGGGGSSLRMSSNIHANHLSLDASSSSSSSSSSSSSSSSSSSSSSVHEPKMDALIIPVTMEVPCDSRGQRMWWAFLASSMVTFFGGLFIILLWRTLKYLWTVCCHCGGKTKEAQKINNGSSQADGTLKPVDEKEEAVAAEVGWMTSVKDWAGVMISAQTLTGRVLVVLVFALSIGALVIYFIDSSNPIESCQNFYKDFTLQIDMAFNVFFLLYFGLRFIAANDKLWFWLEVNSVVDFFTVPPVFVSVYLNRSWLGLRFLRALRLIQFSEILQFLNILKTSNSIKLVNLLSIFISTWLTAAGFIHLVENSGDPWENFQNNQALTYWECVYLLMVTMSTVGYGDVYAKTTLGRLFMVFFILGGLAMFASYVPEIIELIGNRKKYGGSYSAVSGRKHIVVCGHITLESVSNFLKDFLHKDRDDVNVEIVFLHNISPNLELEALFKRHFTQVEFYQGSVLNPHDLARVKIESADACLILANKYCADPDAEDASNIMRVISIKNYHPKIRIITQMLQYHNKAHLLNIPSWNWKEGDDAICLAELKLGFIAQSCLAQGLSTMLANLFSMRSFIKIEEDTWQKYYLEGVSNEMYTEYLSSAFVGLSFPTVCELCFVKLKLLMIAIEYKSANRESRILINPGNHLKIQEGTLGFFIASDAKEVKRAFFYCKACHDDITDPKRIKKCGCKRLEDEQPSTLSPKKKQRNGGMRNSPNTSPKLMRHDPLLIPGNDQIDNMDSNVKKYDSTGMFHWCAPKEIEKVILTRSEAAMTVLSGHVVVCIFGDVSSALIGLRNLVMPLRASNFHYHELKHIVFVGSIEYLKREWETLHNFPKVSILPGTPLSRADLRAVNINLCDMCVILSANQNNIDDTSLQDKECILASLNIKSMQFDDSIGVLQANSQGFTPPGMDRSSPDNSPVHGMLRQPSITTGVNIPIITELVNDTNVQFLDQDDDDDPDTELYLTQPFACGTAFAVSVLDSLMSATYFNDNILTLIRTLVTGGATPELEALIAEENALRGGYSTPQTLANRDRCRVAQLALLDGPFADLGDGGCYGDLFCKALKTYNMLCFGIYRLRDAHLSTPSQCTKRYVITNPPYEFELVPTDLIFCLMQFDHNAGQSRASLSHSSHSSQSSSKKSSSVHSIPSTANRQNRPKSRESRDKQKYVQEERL
T1 sequence (Q16558 whole entry partner): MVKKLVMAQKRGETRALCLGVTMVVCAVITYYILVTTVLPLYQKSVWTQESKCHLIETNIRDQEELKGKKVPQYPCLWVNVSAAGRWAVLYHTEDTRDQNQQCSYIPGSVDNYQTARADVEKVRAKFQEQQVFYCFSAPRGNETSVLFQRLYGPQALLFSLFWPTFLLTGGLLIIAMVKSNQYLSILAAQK
C. elegans Slo-1a, sequence (Q95V25 whole entry): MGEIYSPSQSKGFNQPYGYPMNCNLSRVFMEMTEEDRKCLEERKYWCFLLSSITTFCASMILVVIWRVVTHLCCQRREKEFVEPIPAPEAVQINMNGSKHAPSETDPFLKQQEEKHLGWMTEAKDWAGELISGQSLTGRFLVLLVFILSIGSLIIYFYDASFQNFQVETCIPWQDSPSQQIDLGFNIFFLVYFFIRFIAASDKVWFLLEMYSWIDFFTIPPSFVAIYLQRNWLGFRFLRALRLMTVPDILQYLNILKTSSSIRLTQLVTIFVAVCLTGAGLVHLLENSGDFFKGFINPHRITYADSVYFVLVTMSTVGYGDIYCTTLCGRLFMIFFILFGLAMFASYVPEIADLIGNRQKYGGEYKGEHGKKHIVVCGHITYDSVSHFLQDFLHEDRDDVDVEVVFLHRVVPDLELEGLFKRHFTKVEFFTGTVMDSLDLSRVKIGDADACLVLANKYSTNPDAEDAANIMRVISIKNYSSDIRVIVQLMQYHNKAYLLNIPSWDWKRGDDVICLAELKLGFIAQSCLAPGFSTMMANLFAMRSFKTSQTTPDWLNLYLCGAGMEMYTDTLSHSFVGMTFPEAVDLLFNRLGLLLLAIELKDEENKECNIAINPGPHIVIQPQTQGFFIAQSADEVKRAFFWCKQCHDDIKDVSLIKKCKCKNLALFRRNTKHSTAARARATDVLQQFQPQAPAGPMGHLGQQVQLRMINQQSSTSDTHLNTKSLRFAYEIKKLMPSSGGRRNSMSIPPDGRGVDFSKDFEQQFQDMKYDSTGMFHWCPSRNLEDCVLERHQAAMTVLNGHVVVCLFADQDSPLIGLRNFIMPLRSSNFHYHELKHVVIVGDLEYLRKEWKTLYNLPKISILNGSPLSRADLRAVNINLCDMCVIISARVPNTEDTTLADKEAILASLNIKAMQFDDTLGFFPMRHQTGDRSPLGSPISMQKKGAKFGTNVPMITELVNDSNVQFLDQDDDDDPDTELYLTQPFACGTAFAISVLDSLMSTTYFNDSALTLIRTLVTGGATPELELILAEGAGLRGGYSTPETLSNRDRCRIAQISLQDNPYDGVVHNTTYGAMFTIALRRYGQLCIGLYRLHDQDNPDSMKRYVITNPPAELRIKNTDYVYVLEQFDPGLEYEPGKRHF

Take `CCOc1cc(Sc2cccc(Cl)c2Cl)ncc1C(=O)N[C@H]1CCOc2ccccc21` [Compound 71]: the figures for the concentration giving a half-maximal response (EC50) in experiment [1] and in experiment [2] were over 30 µM and under 10 µM, respectively.

Turning to `COc1cc(Oc2cc(Cl)cc(Cl)c2)ncc1C(=O)N[C@H]1CCc2ccccc21` [Compound 87], in experiment [1], the EC50 (commonly the midpoint of the concentration-response curve) is over 30 µM.

Turning to `CCOc1cc(Oc2cccc(Cl)c2Cl)ncc1C(=O)N[C@H]1CCCc2ccccc21` [Compound 91], the EC50 in experiment [1] was over 30 µM.

In turn, `CCSc1cc(Oc2cccc(Cl)c2Cl)ncc1C(=O)N[C@H]1CCc2ccccc21` [Compound 78] displayed an EC50 in experiment [1] of over 30 µM.

As for `O=C(N[C@H]1CCOc2ccccc21)c1cnc(Sc2cc(Cl)cc(Cl)c2)cc1N1CCOCC1` [Compound 3, (S)—N-(chroman-4-yl)-6-((3,5-dichlorophenyl)thio)-4-morpholinonicotinamide], the EC50 in experiment [1] was over 30 µM; in experiment [2], under 1 µM.

With `CN(C)c1cc(Oc2cc(Cl)cc(Cl)c2)ncc1C(=O)N[C@H]1CCCc2ccccc21` [Compound 28], in experiment [3], the minimal effective concentration is at most 50 µM. For the same compound, the values for the EC50 in experiment [1] and in experiment [2] were over 30 µM and under 1 µM, respectively.

Consider `CN(C)c1cc(Sc2cccc(Cl)c2Cl)ncc1C(=O)N[C@H]1CCOc2ccccc21` [Compound 20], for which the half-maximal effective concentration (EC50) in experiment [1] was over 30 µM; in experiment [2] it was under 1 µM.

For `O=C(Nc1csc2ccccc12)c1cnc(Sc2cc(Cl)cc(Cl)c2)cc1N1CCOCC1` [Compound 27], in experiment [3], the minimal effective concentration is at most 50 µM. The compound further displayed a concentration for a half-maximal effect (EC50) in experiment [1] of over 30 µM.

With `CSc1cc(Oc2cccc(Cl)c2Cl)ncc1C(=O)N[C@H]1CCCc2ccccc21` [Compound 56], in experiment [3], the minimal effective concentration is at most 50 µM. In addition, the EC50 in experiment [1] is over 30 µM; in experiment [2], under 10 µM.

For the compound `CN(C)c1cc(Oc2cc(Cl)cc(Cl)c2)ncc1C(=O)N[C@H]1CCOc2ccccc21` [Compound 30], the 50% effective concentration (EC50) in experiment [1] was over 30 µM; in experiment [2], under 1 µM.

In the case of `O=C(N[C@@H]1CCOc2ccccc21)c1cnc(Oc2cccc(Cl)c2Cl)cc1N1CCOCC1` [Compound 51], the half-maximal effective concentration (EC50) in experiment [1] is over 30 µM.

In experiment [1], `CN(C)c1cc(Oc2cc(Cl)cc(Cl)c2)ncc1C(=O)Nc1csc2ccccc12` [Compound 38] returned an EC50 of over 30 µM.

In experiment [1], `CCSc1cc(Oc2cc(Cl)cc(Cl)c2)ncc1C(=O)N[C@H]1CCc2ccccc21` [Compound 81] had a concentration giving a half-maximal response (EC50) of over 30 µM.

On to `CN(C)c1cc(Sc2cc(Cl)cc(Cl)c2)ncc1C(=O)N[C@H]1CCOc2ccccc21` [Compound 13], for which the concentration for a half-maximal effect (EC50) in experiment [1] was over 30 µM.

In experiment [1], `CN(C)c1cc(Sc2cccc(Cl)c2Cl)ncc1C(=O)Nc1csc2ccccc12` [Compound 44] displayed a 50% effective concentration (EC50) of over 30 µM.

Turning to `CCOc1cc(Oc2cccc(Cl)c2Cl)ncc1C(=O)N[C@H]1CCc2ccccc21` [Compound 93], the EC50 in experiment [1] was over 30 µM.

On to `CCOc1cc(Oc2cc(Cl)cc(Cl)c2)ncc1C(=O)N[C@H]1CCOc2ccccc21` [Compound 89], for which the 50% effective concentration (EC50) in experiment [1] is over 30 µM.

On to `CN(C)c1cc(S(=O)(=O)c2cc(Cl)cc(Cl)c2)ncc1C(=O)N[C@H]1CCc2ccccc21` [Compound 105], for which, in experiment [1], the half-maximal effective concentration (EC50) was over 30 µM.

`O=C(N[C@H]1CCOc2ccccc21)c1cnc(Sc2cccc(Cl)c2Cl)cc1N1CCOCC1` [Compound 22]: the concentration giving a half-maximal response (EC50) in experiment [1] is over 30 µM; in experiment [2] it was under 1 µM.

In the case of `CN(C)c1cc(Sc2cc(Cl)cc(Cl)c2)ncc1C(=O)Nc1csc2ccccc12` [Compound 33], the minimal effective concentration in experiment [3] is at most 50 µM. For the same compound, the EC50 in experiment [1] is over 30 µM.

In experiment [1], `CCOc1cc(Sc2cccc(Cl)c2Cl)ncc1C(=O)N[C@H]1CCCc2ccccc21` [Compound 70] registered an EC50 of over 30 µM.

Take `O=C(Nc1cccc2ccccc12)c1cnc(Sc2cccc(Cl)c2Cl)cc1N1CCOCC1` [Compound 49]: in experiment [3], the minimal effective concentration was at most 50 µM. The concentration for a half-maximal effect (EC50) in experiment [1] was over 30 µM.

As to `O=C(N[C@H]1CCCc2ccccc21)c1cnc(Oc2cc(Cl)cc(Cl)c2)cc1N1CCOCC1` [Compound 8], the results for the EC50 in experiment [1] and in experiment [2] were over 30 µM and under 1 µM, respectively.

Turning to `O=C(N[C@H]1CCCc2ccccc21)c1cnc(Sc2cc(Cl)cc(Cl)c2)cc1N1CCOCC1` [Compound 9], the results for the half-maximal effective concentration (EC50) in experiment [1] and in experiment [2] were over 30 µM and under 1 µM, respectively.

`CCSc1cc(Oc2cccc(Cl)c2Cl)ncc1C(=O)N[C@H]1CCOc2ccccc21` [Compound 77] registered a 50% effective concentration (EC50) in experiment [1] of over 30 µM.

For `CCOc1cc(Oc2cc(Cl)cc(Cl)c2)ncc1C(=O)N[C@H]1CCCc2ccccc21` [Compound 98], the EC50 in experiment [1] was over 30 µM.

For `O=C(Nc1csc2ccccc12)c1cnc(Oc2cc(Cl)cc(Cl)c2)cc1N1CCOCC1` [Compound 47], the minimal effective concentration in experiment [3] is at most 50 µM. In experiment [1], this compound had an EC50 of over 30 µM.

As to `CSc1cc(Sc2cc(Cl)cc(Cl)c2)ncc1C(=O)N[C@H]1CCc2ccccc21` [Compound 65], the results for the EC50 in experiment [1] and in experiment [2] were over 30 µM and under 10 µM, respectively.

As to `CN(C)c1cc(Sc2cccc(Cl)c2Cl)ncc1C(=O)N[C@H]1CCc2ccccc21` [Compound 42], the EC50 in experiment [1] was over 30 µM; in experiment [2] it was under 1 µM.

In the case of `CCOc1cc(Sc2cc(Cl)cc(Cl)c2)ncc1C(=O)N[C@H]1CCOc2ccccc21` [Compound 88], the concentration for a half-maximal effect (EC50) in experiment [1] was over 30 µM; in experiment [2] it was under 10 µM.

For the compound `CCSc1cc(Oc2cc(Cl)cc(Cl)c2)ncc1C(=O)N[C@H]1CCCc2ccccc21` [Compound 79], the EC50 in experiment [1] is over 30 µM.

For the compound `O=C(N[C@H]1CCc2ccccc21)c1cnc(Sc2cc(Cl)cc(Cl)c2)cc1N1CCOCC1` [Compound 11], the EC50 is over 30 µM in experiment [1] and under 1 µM in experiment [2].

For the compound `CN(C)c1cc(Sc2cc(Cl)cc(Cl)c2)ncc1C(=O)N[C@H]1CCc2ccccc21` [Compound 15], the figures for the EC50 in experiment [1] and in experiment [2] were over 30 µM and under 1 µM, respectively.

With `O=C(N[C@H]1CCOc2ccccc21)c1cnc(Nc2cc(Cl)cc(Cl)c2)cc1N1CCOCC1` [Compound 107], the minimal effective concentration in experiment [3] is at most 50 µM. Moreover, the EC50 in experiment [1] was 10 to 30 µM; in experiment [2], under 10 µM.

Take `O=C(N[C@H]1CCOc2ccccc21)c1cnc(Oc2cccc(Cl)c2Cl)cc1N1CCOCC1` [Compound 12]: the concentration for a half-maximal effect (EC50) in experiment [1] is over 30 µM; in experiment [2], under 1 µM.

For `O=C(Nc1cccc2ccccc12)c1cnc(Sc2cc(Cl)cc(Cl)c2)cc1N1CCOCC1` [Compound 10], the minimal effective concentration in experiment [3] is at most 50 µM. In experiment [1], this compound showed an EC50 of over 30 µM.

In experiment [1], `CN(C)c1cc(Sc2cccc(Cl)c2Cl)ncc1C(=O)Nc1cccc2ccccc12` [Compound 43] came in with a 50% effective concentration (EC50) of over 30 µM.

For the compound `O=C(N[C@H]1CCc2ccccc21)c1cnc(Oc2cc(Cl)cc(Cl)c2)cc1N1CCOCC1` [Compound 25, (S)-6-(3,5-dichlorophenoxy)-N-(2,3-dihydro-1H-inden-1-yl)-4-morpholinonicotinamide], the half-maximal effective concentration (EC50) in experiment [1] was over 30 µM.

Consider `O=C(N[C@H]1CCCc2ccccc21)c1cnc(Oc2cccc(Cl)c2Cl)cc1N1CCOCC1` [Compound 6], for which the values for the half-maximal effective concentration (EC50) in experiment [1] and in experiment [2] were over 30 µM and under 1 µM, respectively.

Consider `O=C(N[C@H]1CCc2ccccc21)c1cnc(Oc2cccc(Cl)c2Cl)cc1N1CCOCC1` [Compound 7], for which the half-maximal effective concentration (EC50) in experiment [1] is over 30 µM; in experiment [2] it was under 1 µM.

For the compound `CN(C)c1cc([S+]([O-])c2cc(Cl)cc(Cl)c2)ncc1C(=O)N[C@H]1CCc2ccccc21` (stereo partly drawn) [Compound 104, 6-((3,5-dichlorophenyl)sulfinyl)-N—((S)-2,3-dihydro-1H-inden-1-yl)-4-(dimethylamino)nicotinamide], in experiment [1], the concentration for a half-maximal effect (EC50) was over 30 µM.

On to `O=C(N[C@H]1CCOc2ccccc21)c1cnc(Oc2cc(Cl)cc(Cl)c2)cc1N1CCOCC1` [Compound 5], for which the concentration giving a half-maximal response (EC50) in experiment [1] was over 30 µM; in experiment [2], under 1 µM.

For the compound `CN(C)c1cc(Sc2cc(Cl)cc(Cl)c2)ncc1C(=O)N[C@H]1CCCc2ccccc21` [Compound 14], in experiment [3], the minimal effective concentration is at most 50 µM. Moreover, the results for the EC50 in experiment [1] and in experiment [2] were over 30 µM and under 10 µM, respectively.

Regarding `O=C(Nc1cccc2ccccc12)c1cnc(Oc2cc(Cl)cc(Cl)c2)cc1N1CCOCC1` [Compound 26], the minimal effective concentration in experiment [3] was at most 50 µM. This compound also had an EC50 in experiment [1] of over 30 µM.

In experiment [1], `CCSc1cc(Sc2cc(Cl)cc(Cl)c2)ncc1C(=O)N[C@H]1CCCc2ccccc21` [Compound 75] registered a half-maximal effective concentration (EC50) of over 30 µM.

On to `CSc1cc(Sc2cc(Cl)cc(Cl)c2)ncc1C(=O)N[C@H]1CCCc2ccccc21` [Compound 69], for which the figures for the EC50 in experiment [1] and in experiment [2] were over 30 µM and under 10 µM, respectively.

For `CCSc1cc(Sc2cccc(Cl)c2Cl)ncc1C(=O)N[C@H]1CCc2ccccc21` [Compound 64], in experiment [1], the EC50 was over 30 µM.

`CCSc1cc(Oc2cc(Cl)cc(Cl)c2)ncc1C(=O)N[C@H]1CCOc2ccccc21` [Compound 80]: in experiment [3], the minimal effective concentration was at most 50 µM. The EC50 in experiment [1] was over 30 µM.

For `CSc1cc(Oc2cc(Cl)cc(Cl)c2)ncc1C(=O)N[C@H]1CCCc2ccccc21` [Compound 59], the EC50 is over 30 µM in experiment [1] and under 10 µM in experiment [2].

In the case of `CCSc1cc(Sc2cccc(Cl)c2Cl)ncc1C(=O)N[C@H]1CCOc2ccccc21` [Compound 63], the half-maximal effective concentration (EC50) in experiment [1] was over 30 µM.

As for `CSc1cc(Oc2cc(Cl)cc(Cl)c2)ncc1C(=O)N[C@H]1CCc2ccccc21` [Compound 61], in experiment [3], the minimal effective concentration is at most 50 µM. The concentration for a half-maximal effect (EC50) in experiment [1] is over 30 µM.

`CCSc1cc(Oc2cccc(Cl)c2Cl)ncc1C(=O)N[C@H]1CCCc2ccccc21` [Compound 76]: in experiment [1], the concentration giving a half-maximal response (EC50) is over 30 µM.

Regarding `CN(C)c1cc(Oc2cc(Cl)cc(Cl)c2)ncc1C(=O)N[C@H]1CCc2ccccc21` [Compound 31], the half-maximal effective concentration (EC50) was over 30 µM in experiment [1] and under 1 µM in experiment [2].
